This is an account of results in US12661362B2, “Methods for the prevention and treatment of hearing loss” (Ting Therapeutics LLC, priority 2020, dated 2026).

Data set [1] relates to FVB/NJ mice. Briefly: Cisplatin-induced hearing loss in FVB/NJ mice (ABR, DPOAE, wave-1, hair cell count). It counts as in vivo, mouse. The text has this:
(§1) Now referring to FIGS. 4A-4F Niclosamide attenuates Cisplatin-induced hearing loss in FVB/NJ mice. Mice: Procedures used with mice were approved by the Institutional Animal Care and Use Committee (IACUC) at the Creighton University. For functional assessments including Cisplatin and noise exposure experiments 5 to 7-week-old FVB/NJ mice obtained from Jackson Laboratory (Bar Harbor, ME, USA) were used, with a mix of males and females across experiments. For the Cisplatin and noise studies, FVB/NJ mice were treated with 10 mg/kg Niclosamide, through intraperitoneal (IP) injection. Niclosamide, was dissolved in 1% DMSO in normal saline (0.9% NaCl solution) and vortexed multiple times before injections. Treatment started 24 hours before the Cisplatin or noise-exposure and continued once daily for 3 more days. Cisplatin was injected IP at 30 mg/kg divided into 2 doses per day. Animals were given 1 mL warm sterile normal saline subcutaneously twice a day before and for 7 days after Cisplatin treatment to prevent dehydration.
(§2) Now referring to FIG. 4A, ABR tests were performed 2-3 days before Cisplatin exposure, and 5 days post-Cisplatin exposure. The experimental groups included: Cisplatin and 1% DMSO, Cisplatin and Niclosamide, Niclosamide, only, and age-matched controls receiving normal saline. For the noise experiment, auditory tests were performed 2-3 days prior to noise exposure (paradigm described below), at post-exposure day-1 to monitor temporary threshold shift (TTS) and at post-exposure day-14 to monitor permanent threshold shift (PTS). Experimental groups included: noise-exposure and normal saline, noise-exposure and Niclosamide, Niclosamide-only, and age-matched controls. Following the final auditory function measurements, mice were euthanized, and cochleae were collected for morphological assessment. Based on the results of FVB/NJ ABR/DPOAE threshold variances and power analysis, ten FVB/NJ mice per group (5 of each sex) were used in this study.
Now referring to FIG. 4B measurement of the distortion products otoacoustic emission (DPOAE) thresholds at frequencies ranging from 8 to 40 kHz in cisplatin, niclosamide, control, and cisplatin-niclosamide treated-mice.
Now referring to FIG. 4C-4D, mean wave-1 amplitudes at 8, 16, 32, and 40 kHz was measured in the control and Niclosamide-treated mice before Cisplatin injection and at Day 5 post-Cisplatin injection. The ABR wave-1 amplitude represents the summed activity of the cochlear nerve. Amplitudes from the 85 dB SPL stimuli were compared between groups in the baseline ABR measurements using a two-factor ANOVA (group x frequency), and no group differences were detected (P>0.05).
Now referring to FIGS. […], representative samples of the mouse HCs at 32 kHz, the most protected frequency region shown by ABR measurement (FIG. 4E). […] Niclosamide protects NMDA-induced hair cell loss in zebrafish. Application of the N-methyl-d-aspartate (NMDA) to zebrafish neuromast HCs has also been used to mimic glutamate excitotoxicity associated with noise exposure (Katie S. Kindt and Lavinia Sheets, 2018). The results of the HC count following exposure of zebrafish to 300 μM NMDA led to hair-cell loss.

The test system of data set [2] is FVB/NJ mice. Briefly: Noise-induced hearing loss in FVB/NJ mice (ABR, DPOAE, wave-I, CtBP2 ribbon count). It is filed as in vivo, mouse.
From the text: as §1, §2
Now referring to FIGS. 5B-5F, mice were injected with 10 mg/kg Niclosamide, per IP injection once per day for four consecutive days: one day before noise exposure (8-16 kHz at 105 dB SPL), the day of the noise exposure, and two days after noise exposure. Control animals received vehicle injections on the same schedule.
Now referring to FIG. 5B, Noise-induced ABR threshold shifts were obtained by subtraction of the pre-exposure from the post-exposure thresholds.
Now referring to FIG. 5C, DPOAE amplitudes were measured at f2 frequency ranging from 10 to 80 dB SPL in mice. […] A two-factor ANOVA (group x frequency) was used to compare pre-exposure amplitudes to Day 15 amplitudes.
Now referring to FIG. 5D, mean wave-I amplitudes at 10, 20, 28.3, and 40 kHz were measured at Day 15 post-noise exposure. Amplitudes from the 10-90 dB SPL stimulus intensity were compared between groups in the pre-noise test using a two-factor ANOVA (group x stimulus level), and no group differences were detected. At Day 15, only the 60-90 dB SPL stimulus levels were used because many of the subjects had no responses below 60 dB SPL.
Now referring to FIG. 5E to assess the protection of the ribbon synapses, the cochlear samples were immunostained with CtBP2, one of the most abundant proteins in synaptic ribbon bodies (Kujawa S G, et al. 2006). […] Now referring to FIG. 5F, […] hair cell count of ribbon synapses. […] In the same cochleae, OHCs were also counted. […] The frequency region of 16 kHz was used for CtbP2 ribbon count because this has been shown that ribbons are more abundant in this frequency region.

Data set [3] can be described thus: HPLC analysis of interaction between Niclosamide and Cisplatin in vitro. It is filed as physicochemical. Particulars: ratios 1:1 and 1:10, 37° C. On the procedure: A simple explanation of Niclosamide's protection against CIHL is that it directly inactivates Cisplatin, similar to several otoprotectants in clinical trials (STS, ebselen, etc.). To investigate any possible interaction between Niclosamide and Cisplatin, we developed an HPLC method in vitro. The method may use the following: HPLC: Shimadzu Prominence-i LC-2030C, column: Agilent Eclipse Plus C18, PN-959961-902, 5% ACN, 95% water: 0-2 min; continuous increase of ACN to 95%: 2-12 min; hold at 95% ACN: 12-17 min; continuous decrease of ACN to 5%: 17-20 min, flow rate: 1 mL/min; Temperature 37° C., run time: 20 min. Additional parts of the method may use a stock solution of 1 mg/ml prepared in suitable solvent and mixed to create a ratio of cisplatin and niclosamide at 1:1 and 1:10 in the final injecting solution, along with the pure cisplatin and niclosamide. […] Our in vitro results are consistent with its synergistic interaction with Cisplatin in RCC xenograft models and its protection against noise injury.

Turning to `O=C(Nc1ccc([N+](=O)[O-])cc1Cl)c1cc(Cl)ccc1O` [Niclosamide, 5-chloro-N-(2-chloro-4-nitrophenyl)-2-hydroxy-benzamide], the “ABR threshold shifts versus Cisplatin-only mice” value in data set [1] (8, 12 and 32 kHz, 10 mg/kg IP, Cisplatin 30 mg/kg) was “significantly reduced ABR threshold shifts”. The “DPOAE threshold shifts versus Cisplatin-only mice” value in data set [1] (16 and 32 kHz, 10 mg/kg IP, Day 5 post-Cisplatin) was “significantly reduced DPOAE threshold shifts”. Also, in data set [1] (30 kHz region), the “HC survival versus Cisplatin group” value was “more HC survival”. Also, the “outer hair cell quantification, protection against Cisplatin-induced hair cell loss” value in data set [1] (32 kHz region, cotreatment) was “full protection”. Moreover, in data set [1] (all tested frequencies at 85 dB SPL, Day 5 post-Cisplatin), the “ABR wave-1 amplitudes versus Cisplatin only group” value was “higher amplitudes”. Further, the “noise-induced ABR threshold shifts versus noise exposed group” value in data set [2] (8 kHz to 63 kHz, Day 14, 10 mg/kg IP) is reported as “lower threshold shifts”. For the same molecule, the “synaptic ribbon (CtBP2) survival versus saline-noise group” value in data set [2] (16 kHz) is recorded as “more synaptic ribbon survival”. The “proportion of surviving OHCs versus saline-noise animals” value in data set [2] (32 kHz) is “similar”. In data set [2] (80 and 90 dB SPL, Day 15), the “wave-I amplitudes versus noise-exposed group” value is “higher amplitudes”. Further, the “wave-I amplitude (cochlear nerve activity) versus age-matched controls” value in data set [2] (Day 15) was “comparable to aged matched controls”. Besides, the “DPOAE amplitudes versus noise-saline group” value in data set [2] (day-15 post-noise exposure) was “significantly higher”. The “chemical interaction with Cisplatin (third HPLC peak)” value in data set [3] was “no interaction between Niclosamide and Cisplatin”.
